Assay type in all cases: biochemical
Experiment [1] deals with T1, purified recombinant human TG2 (Homo sapiens, UniProt P21980).
T1 construct: purchased Zedira, Germany
T1 sequence (P21980 1-687): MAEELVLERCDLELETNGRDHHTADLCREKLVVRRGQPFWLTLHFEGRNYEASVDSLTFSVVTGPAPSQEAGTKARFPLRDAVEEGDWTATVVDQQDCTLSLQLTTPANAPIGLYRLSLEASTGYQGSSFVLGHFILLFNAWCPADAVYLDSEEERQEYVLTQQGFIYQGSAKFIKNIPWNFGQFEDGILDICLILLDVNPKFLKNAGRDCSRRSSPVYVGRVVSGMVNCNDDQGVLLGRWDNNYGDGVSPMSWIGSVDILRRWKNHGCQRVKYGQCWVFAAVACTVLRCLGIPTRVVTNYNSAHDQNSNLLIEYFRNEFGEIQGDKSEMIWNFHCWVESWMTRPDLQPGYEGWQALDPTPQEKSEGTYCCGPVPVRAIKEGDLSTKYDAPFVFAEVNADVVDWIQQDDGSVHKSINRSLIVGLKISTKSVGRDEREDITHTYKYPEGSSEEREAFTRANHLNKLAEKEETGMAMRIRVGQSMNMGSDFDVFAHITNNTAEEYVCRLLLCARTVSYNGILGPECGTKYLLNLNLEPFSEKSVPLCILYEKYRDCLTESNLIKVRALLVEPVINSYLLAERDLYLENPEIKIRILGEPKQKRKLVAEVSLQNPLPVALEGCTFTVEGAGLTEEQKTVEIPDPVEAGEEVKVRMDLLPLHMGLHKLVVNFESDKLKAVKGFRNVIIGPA
The experiment is described as follows: Selectivity assay, TG2, biotin X-cadaverine incorporation into N,N′-dimethylcasein (Example 4). The settings on record: recombinant human TG2 2 μg/ml, 1 h at 37° C.; errors are SD. As for the experimental part: (§1) TG transamidation activity and the effect of inhibitors on activity was measured by biotin X-cadaverine incorporation into N,N′-dimethylcasein. After coating 96 well plates with 100 μl of 10 mg/ml N,N′-dimethylcasein in 50 mM Tris-Cl, pH8 at 4° C. over night, plates were washed with TBS-0.05% Tween-20(v/v), pH 7.6 and TBS, pH 7.6, and either 100 μl purified recombinant human TG2 (2 μg/ml Zedira, Germany) or 100 μl purified recombinant human FXIIIa (2 μg/ml Zedira, Germany, preactivated by incubation with 0.01 U bovine thrombin/μg FXIII at room temperature for 30 minutes) in 50 mM Tris-HCl, pH7.4, containing 1 mM DTT, 10 mM CaCl2 and 0.1 μM biotin-cadaverine added into the coated wells containing the appropriate concentration of inhibitor. The reaction was allowed to proceed for 1 h at 37° C. The plate was then washed twice with TBS-Tween-20 (v/v), pH 7.6 and once with TBS, pH 7.6 before being blocked with 100 μl of blocking buffer (3% (w/v) BSA in TBS-Tween, pH 7.6) for 30 min at 37° C. After blocking, the wells were incubated with 100 μl HRP-conjugated ExtrAvidin peroxidase (Sigma-Aldrich, UK) in blocking buffer (1:1,000 dilution) for 1 h at 37° C. After another set of washes, TG2 activity was measured using Sigma Fast OPD, tablets dissolved in 20 ml of distilled H2O. The colour was developed by adding 2.5M H2SO4 and the absorbance at 490 nm measured using a microplate reader ELx808™. All inhibitors were dissolved in DMSO as a 100 mM solution prior to addition to the assay.

Experiment [2] concerns the target T2, purified recombinant human TG2 (tissue transglutaminase) (Homo sapiens, UniProt P21980).
T2 construct: purchased Zedira, Germany
T2 sequence (P21980 1-687): T1 sequence (P21980 1-687)
The experiment is described as follows: TG2 transamidation activity, biotin X-cadaverine incorporation into N,N′-dimethylcasein (Example 2). The settings on record: recombinant human TG2 400 ng/ml, 2 h at 37° C. The protocol: TG transamidation activity and the affect of inhibitors on activity was measured by biotin X-cadaverine incorporation into N,N′-dimethylcasein. After coating 96 well plates with 100 μl of 10 mg/ml N,N′-dimethylcasein in 50 mM Tris-Cl, pH8 at 4° C. over night, plates were washed with TBS-0.05% Tween-20(v/v), pH 7.6 and TBS, pH 7.6, and 100 μl purified recombinant human TG2 (400 ng/ml Zedira, Germany) (tissue transglutaminase) in 50 mM Tris-HCl, pH7.4, containing 1 mM DTT, 10 mM CaCl2 and 0.1 μM biotin-cadaverine added into the coated wells containing the appropriate concentration of inhibitor. The reaction was allowed to proceed for 2 h at 37° C. The plate was then washed twice with TBS-Tween-20 (v/v), pH 7.6 and once with TBS, pH 7.6 before being blocked with 100 μl of blocking buffer (3% (w/v) BSA in TBS-Tween, pH 7.6) for 30 min at 37° C. After blocking, the wells were incubated with 100 μl HRP-conjugated Extr-Avidin peroxidase (Sigma-Aldrich, UK) in blocking buffer (1:1,000 dilution) for 1 h at 37° C. After another set of washes, TG2 activity was measured using Sigma Fast OPD, tablets dissolved in 20 ml of distilled H2O. The colour was developed by adding 2.5 M H2SO4 and the absorbance at 490 nm measured using a microplate reader ELx808™. All inhibitors were dissolved in DMSO as a 100 mM solution prior to addition to the assay.

The target in experiment [3] is T3, purified recombinant human FXIIIa (Homo sapiens, UniProt P00488).
T3 construct: purchased Zedira, Germany
T3 sequence (P00488 39-732 limits assumed): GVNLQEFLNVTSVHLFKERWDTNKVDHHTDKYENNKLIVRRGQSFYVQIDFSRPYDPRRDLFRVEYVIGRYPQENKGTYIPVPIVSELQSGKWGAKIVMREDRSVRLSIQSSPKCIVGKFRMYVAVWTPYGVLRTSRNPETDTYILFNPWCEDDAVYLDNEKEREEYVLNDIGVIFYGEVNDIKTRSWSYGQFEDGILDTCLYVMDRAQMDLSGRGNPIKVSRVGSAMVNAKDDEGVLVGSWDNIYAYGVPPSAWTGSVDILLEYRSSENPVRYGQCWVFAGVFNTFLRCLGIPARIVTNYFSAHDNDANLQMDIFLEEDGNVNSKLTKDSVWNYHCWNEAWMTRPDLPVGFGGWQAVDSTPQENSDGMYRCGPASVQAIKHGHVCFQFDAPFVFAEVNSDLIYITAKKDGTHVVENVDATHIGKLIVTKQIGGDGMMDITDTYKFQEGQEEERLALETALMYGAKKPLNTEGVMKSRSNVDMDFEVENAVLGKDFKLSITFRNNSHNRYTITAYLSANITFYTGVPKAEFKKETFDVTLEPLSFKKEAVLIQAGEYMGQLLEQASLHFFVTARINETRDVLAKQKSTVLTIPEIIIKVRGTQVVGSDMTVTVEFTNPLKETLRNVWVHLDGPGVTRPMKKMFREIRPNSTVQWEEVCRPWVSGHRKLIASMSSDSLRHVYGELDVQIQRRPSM
The experiment is described as follows: Selectivity assay, FXIIIa, biotin X-cadaverine incorporation into N,N′-dimethylcasein (Example 4). Conditions: recombinant human FXIIIa 2 μg/ml, thrombin preactivated, 1 h at 37° C.; errors are SD; read-out: FACTOR XIII IC50. The protocol:
as §1

Among the data in patent US9656978B2, “Acylpiperazines as inhibitors of transglutaminase and their use in medicine” (ASTON UNIVERSITY, priority 2012, dated 2017) are IC50 values, retold here.

Consider `C[S+](C)CC(=O)N[C@@H](Cc1ccccc1)C(=O)N1CCN(C(=O)OCc2ccccc2)CC1` [EB 1-126], for which the IC50 was above 500 µM in experiment [1], above 100 µM in experiment [2] and 15.5 ± 6.3 µM in experiment [3].

`C[S+](C)CC(=O)N[C@H](Cc1ccccc1)C(=O)N1CCN(C(=O)OCc2ccccc2)CC1` [EB 1-127]: the half-maximal inhibitory concentration (IC50) in experiment [1] was above 500 µM; in experiment [2], above 100 µM; in experiment [3], 23.3 ± 5.5 µM.

Turning to `C=CC(=O)N[C@H](Cc1ccccc1)C(=O)N1CCN(C(=O)OCc2ccccc2)CC1` [EB 1-131], the figures for the 50% inhibitory concentration (IC50) in experiment [1], in experiment [2] and in experiment [3] were above 500 µM, above 100 µM and 13.5 ± 4.9 µM, respectively.
